The values that follow come from patent US20190185518A9, “WARHEAD-CONTAINING PEPTIDOMIMETIC MACROCYCLES AS MODULATORS OF BFL-1” (AILERON Therapeutics, Inc., priority 2017, published 2019).

Positions of bridges follow the written chain, without caps; N, C: chain ends. Non-standard residues stand in square brackets, D forms with d. Residues, ends and D or L forms follow the SMILES beside them. Gly(1-adamantyl) = N[C@H](C(=O)O)C12CC3CC(CC(C3)C1)C2; hPhe = N[C@@H](CCc1ccccc1)C(=O)O; R8 = C=CCCCCCC[C@@](C)(N)C(=O)O; Cit = NC(=O)NCCC[C@H](N)C(=O)O; αMeL = CC(C)C[C@](C)(N)C(=O)O; S5 = C=CCCC[C@](C)(N)C(=O)O Where only a bound is given, the exact number is not on record here.

For one assay, the target named is Bcl-xL (Homo sapiens, UniProt Q07817). In words: Ki determination for Bcl-xL (BCL-2 family binding spectrum). The settings on record: read-out: Ki BCL-XL. In short, it runs like this: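 Competitive fluorescence polarization: compounds (1 nM–1 mM) with 25 nM fluoresceinated peptidomimetic macrocycle and 50 nM protein in 140 mM NaCl, 50 mM Tris-HCl pH 7.4, 30 min at room temperature. Constants from nonlinear regression.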
Bcl-xL, sequence (Q07817 whole entry, species assumed): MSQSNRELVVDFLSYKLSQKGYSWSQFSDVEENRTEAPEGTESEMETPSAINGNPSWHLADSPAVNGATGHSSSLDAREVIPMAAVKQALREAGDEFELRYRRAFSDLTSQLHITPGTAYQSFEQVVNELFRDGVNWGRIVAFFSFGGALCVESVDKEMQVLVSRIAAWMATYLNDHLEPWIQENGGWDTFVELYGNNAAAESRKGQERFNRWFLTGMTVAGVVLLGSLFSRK

For another assay, the target named is Bcl-2 (Homo sapiens, UniProt P10415). In words: Ki determination for Bcl-2 (BCL-2 family binding spectrum). To be noted: read-out: Ki BCL-2. The text has this: To assess the binding and affinity of compounds that antagonize the interaction between a peptide and an acceptor protein, a fluorescence polarization assay (FPA) utilizing a fluoresceinated peptidomimetic macrocycle derived from a peptidomimetic precursor sequence is used, for example. The FPA technique measures the molecular orientation and mobility using polarized light and fluorescent tracer. […] A compound that antagonizes the interaction between the fluoresceinated peptidomimetic macrocycle and an acceptor protein will be detected in a competitive binding FPA experiment.
Bcl-2, sequence (P10415 whole entry, species assumed): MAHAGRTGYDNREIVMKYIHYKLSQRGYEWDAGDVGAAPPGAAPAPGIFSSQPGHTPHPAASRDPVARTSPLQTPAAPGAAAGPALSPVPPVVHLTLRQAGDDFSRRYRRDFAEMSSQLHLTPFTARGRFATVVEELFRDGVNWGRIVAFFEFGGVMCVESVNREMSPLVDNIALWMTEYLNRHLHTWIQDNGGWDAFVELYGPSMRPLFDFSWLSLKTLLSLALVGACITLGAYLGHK
For example, putative antagonist compounds (1 nM to 1 mM) and a fluoresceinated peptidomimetic macrocycle (25 nM) are incubated with the acceptor protein (50 nM) in binding buffer (140 mM NaCl, 50 mM Tris-HCL, pH 7.4) for 30 minutes at room temperature. Antagonist binding activity is measured, for example, by fluorescence polarization on a luminescence spectrophotometer (e.g. Perkin-Elmer LS50B). Kd values may be determined by nonlinear regression analysis using, for example, Graphpad Prism software (GraphPad Software, Inc., San Diego, Calif.).

A further assay concerns the target Mcl-1 (Homo sapiens, UniProt Q07820). In words: Ki determination for Mcl-1 (BCL-2 family binding spectrum). To be noted: read-out: Ki MCL-1. In outline: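 Competitive fluorescence polarization assay in which compounds displace a fluoresceinated peptidomimetic macrocycle tracer from Mcl-1. Affinity constants were obtained by nonlinear regression.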

Mcl-1, sequence (Q07820 whole entry, species assumed): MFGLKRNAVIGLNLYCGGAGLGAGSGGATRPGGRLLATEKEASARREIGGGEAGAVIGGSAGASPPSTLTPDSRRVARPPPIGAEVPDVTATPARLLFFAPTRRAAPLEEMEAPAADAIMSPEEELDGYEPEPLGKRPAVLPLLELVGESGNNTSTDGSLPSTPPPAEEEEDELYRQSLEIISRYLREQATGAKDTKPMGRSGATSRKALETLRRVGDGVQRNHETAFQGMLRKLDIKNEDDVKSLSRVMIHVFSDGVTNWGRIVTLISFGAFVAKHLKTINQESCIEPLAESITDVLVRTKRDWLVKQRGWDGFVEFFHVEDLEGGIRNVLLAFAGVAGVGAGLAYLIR

Broadly, the Ki is the dissociation constant of the complex between target and ligand, obtained from inhibition or displacement. Turning to `CC[C@H](C)[C@H](NC(C)=O)C(=O)N[C@@H](C)C(=O)N[C@@H](CCC(N)=O)C(=O)N[C@@H](C)C(=O)N[C@@H](CC(C)C)C(=O)N[C@@H](CCCNC(=N)N)C(=O)N[C@]1(C)CCCCCCC=CCCC[C@@](C)(C(=O)N[C@@H](Cc2ccc(O)cc2)C(=O)N[C@@H](C)C(=O)N[C@@H](C)C(N)=O)NC(=O)[C@H](CC(N)=O)NC(=O)[C@H](Cc2ccccc2)NC(=O)[C@H](C)NC(=O)[C@H](CC(=O)O)NC(=O)CNC(=O)[C@H]([C@@H](C)CC)NC1=O` [compound 1632] (Ac-IAQALR[R8]IGDAFN[S5]YAA-NH2; staple 7-14), the Ki on Bcl-xL and on Bcl-2 was over 1000 nM in each case.

Turning to `CC[C@H](C)[C@H](NC(C)=O)C(=O)N[C@@H](C)C(=O)N[C@@H](CCC(N)=O)C(=O)N[C@@H](C)C(=O)N[C@@H](CC(C)C)C(=O)N[C@@H](C)C(=O)N[C@]1(C)CCCCCCC=CCCC[C@@](C)(C(=O)N[C@@H](Cc2ccc(O)cc2)C(=O)N[C@@H](Cc2ccc(O)cc2)C(=O)N[C@@H](C)C(N)=O)NC(=O)[C@H](CC(N)=O)NC(=O)[C@H](Cc2ccccc2)NC(=O)[C@H](C)NC(=O)[C@H](CC(=O)O)NC(=O)CNC(=O)[C@H]([C@@H](C)CC)NC1=O` [compound 1637] (Ac-IAQALA[R8]IGDAFN[S5]YYA-NH2; staple 7-14), the Ki on Bcl-xL and on Bcl-2 was over 1000 nM in each case.

`CC[C@H](C)[C@H](NC(C)=O)C(=O)N[C@@H](C)C(=O)N[C@@H](CCC(N)=O)C(=O)N[C@@H](C)C(=O)N[C@@H](CC(C)C)C(=O)N[C@@H](CCCNC(=N)N)C(=O)N[C@]1(C)CCCCCCC=CCCC[C@@](C)(C(=O)N[C@@H](Cc2ccc(O)cc2)C(=O)N[C@@H](Cc2ccc(O)cc2)C(=O)N[C@@H](C)C(N)=O)NC(=O)[C@H](CC(N)=O)NC(=O)[C@H](C)NC(=O)[C@H](C)NC(=O)[C@H](CC(=O)O)NC(=O)CNC(=O)[C@H]([C@@H](C)CC)NC1=O` [compound 1639] (Ac-IAQALR[R8]IGDAAN[S5]YYA-NH2; staple 7-14): the Ki at Bcl-xL and at Bcl-2 was over 1000 nM in each case.

Turning to `CC[C@H](C)[C@H](NC(C)=O)C(=O)N[C@@H](Cc1c[nH]c2ccccc12)C(=O)N[C@H](C(=O)N[C@@H](C)C(=O)N[C@@H](CCC(N)=O)C(=O)N[C@@H](C)C(=O)N[C@@H](CC(C)C)C(=O)N[C@@H](CCCNC(=N)N)C(=O)N[C@]1(C)CCCCCCC=CCCC[C@@](C)(C(=O)N[C@@H](Cc2ccc(O)cc2)C(=O)N[C@@H](Cc2ccc(O)cc2)C(=O)N[C@@H](C)C(N)=O)NC(=O)[C@H](CC(N)=O)NC(=O)[C@H](Cc2ccccc2)NC(=O)[C@H](CCC(N)=O)NC(=O)[C@H](CC(=O)O)NC(=O)CNC(=O)[C@H]([C@@H](C)CC)NC1=O)[C@@H](C)CC` [compound 1650] (Ac-IWIAQALR[R8]IGDQFN[S5]YYA-NH2; staple 9-16), the results for the Ki at Mcl-1, at Bcl-xL and on Bcl-2 were 5.2 nM, 12 nM and 67 nM, respectively.

Turning to `CC[C@H](C)[C@H](NC(C)=O)C(=O)N[C@@H](Cc1c[nH]c2ccccc12)C(=O)N[C@H](C(=O)N[C@@H](C)C(=O)N[C@@H](C)C(=O)N[C@@H](C)C(=O)N[C@@H](CC(C)C)C(=O)N[C@@H](CCCNC(=N)N)C(=O)N[C@]1(C)CCCCCCC=CCCC[C@@](C)(C(=O)N[C@@H](Cc2ccc(O)cc2)C(=O)N[C@@H](Cc2ccc(O)cc2)C(=O)N[C@@H](C)C(N)=O)NC(=O)[C@H](CC(N)=O)NC(=O)[C@H](Cc2ccccc2)NC(=O)[C@H](CCC(=O)O)NC(=O)[C@H](CC(=O)O)NC(=O)CNC(=O)[C@H]([C@@H](C)CC)NC1=O)[C@@H](C)CC` [compound 1651] (Ac-IWIAAALR[R8]IGDEFN[S5]YYA-NH2; staple 9-16), the figures for the Ki at Mcl-1, on Bcl-xL and on Bcl-2 were 1 nM, 1 nM and 6 nM, respectively.

Regarding `CC[C@H](C)[C@H](NC(C)=O)C(=O)N[C@@H](Cc1c[nH]c2ccccc12)C(=O)N[C@H](C(=O)N[C@@H](C)C(=O)N[C@@H](CCC(N)=O)C(=O)N[C@@H](C)C(=O)N[C@H](C(=O)N[C@@H](CCCNC(=N)N)C(=O)N[C@]1(C)CCCCCC/C=C\CCC[C@@](C)(C(=O)N[C@@H](Cc2ccc(O)cc2)C(=O)N[C@@H](Cc2ccc(O)cc2)C(=O)N[C@@H](C)C(N)=O)NC(=O)[C@H](CC(N)=O)NC(=O)[C@H](Cc2ccccc2)NC(=O)[C@H](C)NC(=O)[C@H](CC(=O)O)NC(=O)CNC(=O)[C@H]([C@@H](C)CC)NC1=O)C12CC3CC(CC(C3)C1)C2)[C@@H](C)CC` [compound 1689] (Ac-IWIAQA[Gly(1-adamantyl)]R[R8]IGDAFN[S5]YYA-NH2; staple (Z) 9-16), the Ki on Bcl-xL is 110 nM; on Bcl-2 it was over 1000 nM.

In the case of `CC[C@H](C)[C@H](NC(C)=O)C(=O)N[C@@H](Cc1c[nH]c2ccccc12)C(=O)N[C@H](C(=O)N[C@@H](Cc1ccccc1)C(=O)N[C@@H](C)C(=O)N[C@@H](C)C(=O)N[C@@H](CC(C)C)C(=O)N[C@@H](CCCNC(=N)N)C(=O)N[C@]1(C)CCCCCCC=CCCC[C@@](C)(C(=O)N[C@@H](Cc2ccc(O)cc2)C(=O)N[C@@H](Cc2ccc(O)cc2)C(=O)N[C@@H](C)C(N)=O)NC(=O)[C@H](CC(N)=O)NC(=O)[C@H](Cc2ccccc2)NC(=O)[C@H](C)NC(=O)[C@H](CC(=O)O)NC(=O)CNC(=O)[C@H]([C@@H](C)CC)NC1=O)[C@@H](C)CC` [compound 1735] (Ac-IWIFAALR[R8]IGDAFN[S5]YYA-NH2; staple 9-16), the Ki is 110 nM at Bcl-xL and 125 nM on Bcl-2.

Turning to `CC[C@H](C)[C@H](NC(C)=O)C(=O)N[C@@H](Cc1c[nH]c2ccccc12)C(=O)N[C@H](C(=O)N[C@@H](C)C(=O)N[C@@H](CCC(N)=O)C(=O)N[C@@H](C)C(=O)N[C@@H](CC(C)C)C(=O)N[C@@H](CCCNC(=N)N)C(=O)N[C@]1(C)CCCCCCC=CCCC[C@@](C)(C(=O)N[C@@H](Cc2ccc(O)cc2)C(=O)N[C@@H](CCc2ccccc2)C(=O)N[C@@H](C)C(N)=O)NC(=O)[C@H](CC(N)=O)NC(=O)[C@H](Cc2ccccc2)NC(=O)[C@H](C)NC(=O)[C@H](CC(=O)O)NC(=O)CNC(=O)[C@H]([C@@H](C)CC)NC1=O)[C@@H](C)CC` [compound 1757] (Ac-IWIAQALR[R8]IGDAFN[S5]Y[hPhe]A-NH2; staple 9-16), the Ki on Mcl-1 stood at 8 nM; at Bcl-2, 30.7 nM.

For the compound `CC[C@H](C)[C@H](NC(C)=O)C(=O)N[C@@H](Cc1c[nH]c2ccccc12)C(=O)N[C@H](C(=O)N[C@@H](C)C(=O)N[C@@H](CCC(N)=O)C(=O)N[C@@H](C)C(=O)N[C@@](C)(CC(C)C)C(=O)N[C@@H](CCCNC(=N)N)C(=O)N[C@]1(C)CCCCCCC=CCCC[C@@](C)(C(=O)N[C@@H](Cc2ccc(O)cc2)C(=O)N[C@@H](Cc2ccc(O)cc2)C(=O)N[C@@H](C)C(N)=O)NC(=O)[C@H](CC(N)=O)NC(=O)[C@H](Cc2ccccc2)NC(=O)[C@H](C)NC(=O)[C@H](CC(=O)O)NC(=O)CNC(=O)[C@H]([C@@H](C)CC)NC1=O)[C@@H](C)CC` [compound 1767] (Ac-IWIAQA[αMeL]R[R8]IGDAFN[S5]YYA-NH2; staple 9-16), the Ki at Bcl-xL and on Bcl-2 was over 1000 nM in each case.

In the case of `CC[C@H](C)[C@H](NC(C)=O)C(=O)N[C@@H](Cc1c[nH]c2ccccc12)C(=O)N[C@H](C(=O)N[C@@H](C)C(=O)N[C@@H](CCC(N)=O)C(=O)N[C@@H](C)C(=O)N[C@@H](C)C(=O)N[C@@H](CCCNC(N)=O)C(=O)N[C@]1(C)CCCCCCC=CCCC[C@@](C)(C(=O)N[C@@H](Cc2ccc(O)cc2)C(=O)N[C@@H](Cc2ccc(O)cc2)C(=O)N[C@@H](C)C(N)=O)NC(=O)[C@H](CC(N)=O)NC(=O)[C@H](Cc2ccccc2)NC(=O)[C@H](C)NC(=O)[C@H](CC(=O)O)NC(=O)CNC(=O)[C@H]([C@@H](C)CC)NC1=O)[C@@H](C)CC` [compound 1771] (Ac-IWIAQAA[Cit][R8]IGDAFN[S5]YYA-NH2; staple 9-16), the Ki at Mcl-1 and at Bcl-2 was over 1000 nM each time.

For `CC[C@H](C)[C@H](NC(C)=O)C(=O)N[C@@H](Cc1c[nH]c2ccccc12)C(=O)N[C@H](C(=O)N[C@@H](C)C(=O)N[C@@H](CCC(N)=O)C(=O)N[C@@H](C)C(=O)N[C@@H](CC(C)C)C(=O)N[C@@H](CCCNC(N)=O)C(=O)N[C@]1(C)CCCCCCC=CCCC[C@@](C)(C(=O)N[C@@H](Cc2ccc(O)cc2)C(=O)N[C@@H](Cc2ccc(O)cc2)C(=O)N[C@@H](C)C(N)=O)NC(=O)[C@H](CC(N)=O)NC(=O)[C@H](C)NC(=O)[C@H](C)NC(=O)[C@H](CC(=O)O)NC(=O)CNC(=O)[C@H]([C@@H](C)CC)NC1=O)[C@@H](C)CC` [compound 1773] (Ac-IWIAQAL[Cit][R8]IGDAAN[S5]YYA-NH2; staple 9-16), the inhibitory constant (Ki) at Bcl-xL and at Bcl-2 was over 1000 nM throughout.

Turning to `CC[C@H](C)[C@H](NC(C)=O)C(=O)N[C@@H](Cc1c[nH]c2ccccc12)C(=O)N[C@H](C(=O)N[C@@H](C)C(=O)N[C@@H](CCC(N)=O)C(=O)N[C@@H](C)C(=O)N[C@@H](CC(C)C)C(=O)N[C@@H](CCCNC(N)=O)C(=O)N[C@]1(C)CCCCCCC=CCCC[C@@](C)(C(=O)N[C@@H](Cc2ccc(O)cc2)C(=O)N[C@@H](Cc2ccc(O)cc2)C(=O)N[C@@H](C)C(N)=O)NC(=O)[C@H](CC(N)=O)NC(=O)[C@H](C(C)C)NC(=O)[C@H](C)NC(=O)[C@H](CC(=O)O)NC(=O)CNC(=O)[C@H]([C@@H](C)CC)NC1=O)[C@@H](C)CC` [compound 1774] (Ac-IWIAQAL[Cit][R8]IGDAVN[S5]YYA-NH2; staple 9-16), the Ki at Bcl-xL and on Bcl-2 was over 1000 nM throughout.
